Data as given in the NIST ThermoML archive (doi:10.1016/j.fluid.2005.11.016).
± gives the expanded uncertainty stated by the source.

Legend:
[1] = Liquid
[2] = excess molar enthalpy (molar enthalpy of mixing); xn = mol fraction of the nth substance listed; conditions: 303.15 K, 101 kPa, Liquid, Calvet calorimetry

| SMILES | vapor or sublimation pressure ([1]; 263.15 K) [kPa] | vapor or sublimation pressure ([1]; 273.15 K) [kPa] | vapor or sublimation pressure ([1]; 283.15 K) [kPa] | vapor or sublimation pressure ([1]; 293.15 K) [kPa] | vapor or sublimation pressure ([1]; 303.15 K) [kPa] | vapor or sublimation pressure ([1]; 313.15 K) [kPa] | vapor or sublimation pressure ([1]; 323.15 K) [kPa] | vapor or sublimation pressure ([1]; 333.15 K) [kPa] | vapor or sublimation pressure ([1]; 343.15 K) [kPa] | vapor or sublimation pressure ([1]; 353.15 K) [kPa] | also measured |
| --- | --- | --- | --- | --- | --- | --- | --- | --- | --- | --- | --- |
| Cc1cccc(C)n1 [2,6-dimethylpyridine] | 0.065 ± 0.007 | 0.143 ± 0.011 | 0.296 ± 0.017 | 0.575 ± 0.028 | 1.061 ± 0.048 | 1.868 ± 0.055 | 3.154 ± 0.066 | 5.129 ± 0.082 | 8.066 ± 0.11 | 12.31 ± 0.14 | – |
| Cc1cccc(C)n1 [2,6-dimethylpyridine] + Cc1ccccc1 | – | – | – | – | – | – | – | – | – | – | excess molar enthalpy ([2]; x1 = 0.0145): 0.0148 ± 0.00239 kcal/mol; excess molar enthalpy ([2]; x1 = 0.2129): 0.0198 ± 0.00239 kcal/mol; excess molar enthalpy ([2]; x1 = 0.2993): 0.0203 ± 0.00239 kcal/mol; excess molar enthalpy ([2]; x1 = 0.3406): 0.021 ± 0.00239 kcal/mol; excess molar enthalpy ([2]; x1 = 0.434): 0.0206 ± 0.00239 kcal/mol; excess molar enthalpy ([2]; x1 = 0.4479): 0.0208 ± 0.00239 kcal/mol; excess molar enthalpy ([2]; x1 = 0.5547): 0.0191 ± 0.00239 kcal/mol; excess molar enthalpy ([2]; x1 = 0.5885): 0.0182 ± 0.00239 kcal/mol; excess molar enthalpy ([2]; x1 = 0.6718): 0.0167 ± 0.00239 kcal/mol; excess molar enthalpy ([2]; x1 = 0.7056): 0.0163 ± 0.00239 kcal/mol; excess molar enthalpy ([2]; x1 = 0.7248): 0.0153 ± 0.00239 kcal/mol; excess molar enthalpy ([2]; x1 = 0.7746): 0.012 ± 0.00239 kcal/mol; excess molar enthalpy ([2]; x1 = 0.8563): 0.00837 ± 0.00239 kcal/mol |
| Cc1cncc(C)c1 [3,5-dimethylpyridine] | 0.016 ± 0.003 | 0.038 ± 0.005 | 0.083 ± 0.008 | 0.169 ± 0.012 | 0.325 ± 0.018 | 0.596 ± 0.029 | 1.049 ± 0.047 | 1.775 ± 0.055 | 2.904 ± 0.064 | 4.603 ± 0.079 | – |
| Cc1cncc(C)c1 [3,5-dimethylpyridine] + Cc1ccccc1 | – | – | – | – | – | – | – | – | – | – | excess molar enthalpy ([2]; x1 = 0.1248): 0.0131 ± 0.00239 kcal/mol; excess molar enthalpy ([2]; x1 = 0.1817): 0.0163 ± 0.00239 kcal/mol; excess molar enthalpy ([2]; x1 = 0.2194): 0.0186 ± 0.00239 kcal/mol; excess molar enthalpy ([2]; x1 = 0.3217): 0.0215 ± 0.00239 kcal/mol; excess molar enthalpy ([2]; x1 = 0.4079): 0.0253 ± 0.00239 kcal/mol; excess molar enthalpy ([2]; x1 = 0.5991): 0.0263 ± 0.00239 kcal/mol; excess molar enthalpy ([2]; x1 = 0.6191): 0.0256 ± 0.00239 kcal/mol |
| Cc1ccccc1 [toluene] | 0.468 ± 0.024 | 0.908 ± 0.043 | 1.666 ± 0.056 | 2.911 ± 0.07 | 4.873 ± 0.093 | 7.852 ± 0.13 | 12.23 ± 0.18 | 18.46 ± 0.26 | 27.12 ± 0.37 | 38.87 ± 0.52 | – |
